Measurements reported in US10098881B2, “Compounds” (AUTIFONY THERAPEUTICS LIMITED, priority 2011, dated 2018).
Entries after “also recorded” stand apart in the source; their conditions may differ. Like-named read-outs stand apart in the source and are kept apart here.

What was measured:
[1] = test system: Male CD-1 mice; test: Biological Example 2: psychostimulant (amphetamine)-induced hyperactivity in mice; settings: over 60 minutes, mean ± sem
[2] = Analysis of blood levels of Example 4 in study mice; format: in vivo; settings: CD-1, whole blood, ip, mouse, 90 minutes after administration, n=3, mean [range], read-out: Blood concentration of Test Drug
Description: Blood samples were collected from a subset of study mice (n=3) at the end of the behavioural measurement (90 minutes post-dose of test drug), and assayed using a method based on protein precipitation with acetonitrile followed by HPLC-MS/MS analysis with an optimized analytical method. Since the stability of the analyte in blood and brain was unknown, Calibration standards (CS) and Quality control samples (QC) were prepared on the day of dosing and stored together with study samples. Study samples, CS, QC and blanks were spiked with rolipram as internal standard (IS). Study samples were analyzed in discrete batches together with CS, QC and blank samples.

[3] = target: T1, human Kv3.2 channels (hKv3.2) (Homo sapiens, UniProt Q96PR1); test: Biological Example 1: hKv3.2 whole-cell currents, IonWorks Quattro planar array electrophysiology; format: cell-based
T1 construct: expressed in transfected cells
T1 sequence (Q96PR1 1-638): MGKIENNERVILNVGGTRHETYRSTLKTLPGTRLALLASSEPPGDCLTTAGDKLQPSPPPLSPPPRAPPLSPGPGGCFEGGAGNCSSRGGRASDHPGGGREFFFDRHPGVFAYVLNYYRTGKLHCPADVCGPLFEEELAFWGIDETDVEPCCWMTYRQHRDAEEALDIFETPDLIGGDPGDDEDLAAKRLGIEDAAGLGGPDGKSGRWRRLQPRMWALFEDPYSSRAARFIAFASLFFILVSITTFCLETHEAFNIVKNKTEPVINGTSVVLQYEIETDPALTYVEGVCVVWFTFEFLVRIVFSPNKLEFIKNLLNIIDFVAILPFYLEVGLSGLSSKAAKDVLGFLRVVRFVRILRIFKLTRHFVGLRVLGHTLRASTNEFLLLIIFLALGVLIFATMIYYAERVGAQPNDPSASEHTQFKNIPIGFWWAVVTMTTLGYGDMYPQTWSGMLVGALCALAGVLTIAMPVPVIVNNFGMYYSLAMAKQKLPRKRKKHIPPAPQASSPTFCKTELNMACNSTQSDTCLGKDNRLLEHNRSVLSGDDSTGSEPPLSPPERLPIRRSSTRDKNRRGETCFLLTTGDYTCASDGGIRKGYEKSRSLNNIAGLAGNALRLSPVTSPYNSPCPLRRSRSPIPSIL
Description: The ability of the compounds of the invention to modulate the voltage-gated potassium channel subtypes Kv3.2 or Kv3.1 may be determined using the following assay. Analogous methods may be used to investigate the ability of the compounds of the invention to modulate other channel subtypes, including Kv3.3 and Kv3.4.
To assess compound effects on human Kv3.2 channels (hKv3.2), a stable cell line expressing hKv3.2 was created by transfecting Chinese Hamster Ovary (CHO)-K1 cells with a pClH5-hKv3.2 vector. Cells were cultured in DMEM/F12 medium supplemented by 10% Foetal Bovine Serum, lx non-essential amino acids (Invitrogen) and 500 ug/ml of Hygromycin-B (Invitrogen). Cells were grown and maintained at 37° C. in a humidified environment containing 5% CO2 in air.
The day of the experiment, cells were removed from the incubator and the culture medium removed. Cells were washed with 5 ml of Dulbecco's PBS (DPBS) calcium and magnesium free and detached by the addition of 3 ml Versene (Invitrogen, Italy) followed by a brief incubation at 37° C. for 5 minutes. The flask was tapped to dislodge cells and 10 ml of DPBS containing calcium and magnesium was added to prepare a cell suspension. The cell suspension was then placed into a 15 ml centrifuge tube and centrifuged for 2 min at 1200 rpm. After centrifugation, the supernatant was removed and the cell pellet re-suspended in 4 ml of DPBS containing calcium and magnesium using a 5 ml pipette to break up the pellet. Cell suspension volume was then corrected to give a cell concentration for the assay of approximately 3 million cells per ml.
Experiments were conducted at room temperature using IonWorks Quattro™ planar array electrophysiology technology (Molecular Devices Corp.) with PatchPlate™ PPC. Stimulation protocols and data acquisition were carried out using a microcomputer (Dell Pentium 4). Planar electrode hole resistances (Rp) were determined by applying a 10 mV voltage step across each well. These measurements were performed before cell addition. […] Following this, amphotericin-B solution was added to the intracellular face of the electrode to achieve intracellular access. Cells were held at −70 mV. Leak subtraction was conducted in all experiments by applying 50 ms hyperpolarizing (10 mV) prepulses to evoke leak currents followed by a 20 ms period at the holding potential before test pulses. From the holding potential of −70 mV, a first test pulse to −15 mV was applied for 100 ms and following a further 100 ms at −70 mV, a second pulse to 40 mV was applied for 50 ms. Cells were then maintained for a further 100 ms at −100 mV and then a voltage ramp from −100 mV to 40 mV was applied over 200 ms. Test pulses protocol may be performed in the absence (pre-read) and presence (post-read) of the test compound. Pre- and post-reads may be separated by the compound addition followed by a 3 minute incubation.
The intracellular solution contained the following (in mM): K-gluconate 100, KCl 54, MgCl2 3.2, HEPES 5, adjusted to pH 7.3 with KOH. Amphotericin-B solution was prepared as […] stock solution in DMSO and diluted to a final working concentration of 0.1 mg/ml in intracellular solution.
Compounds of the invention (or reference compounds such as N-cyclohexyl-N-[(7,8-dimethyl-2-oxo-1,2-dihydro-3-quinolinyl)methyl]-N′-phenylurea were dissolved in dimethylsulfoxide (DMSO) at a stock concentration of 10 mM. These solutions were further diluted with DMSO using a Biomek FX
Each dilution (1 μL) was transferred to another compound plate and external solution containing 0.05% pluronic acid (66 μL) was added. 3.5 μL from each plate containing a compound of the invention was added and incubated with the cells during the lonWorks Quattro™ experiment. The final assay dilution was 200 and the final compound concentrations were in the range 50 μM to 50 nM.

[4] = test system: "fast-firing" interneurons in the somatosensory cortex; test: Recordings from identified fast-firing interneurons, trains of high frequency depolarising current pulses; format: cell-based, mouse; settings: 1 microM, n=6; trains of depolarising pulses at 100, 200, 300 Hz; p<0.05 vs no drug; listed as Reference Example 9
Description: FIG. 2. Recordings made from identified “fast-firing” interneurons in the somatosensory cortex of the mouse.
Kv3.1 and Kv3.2 channels must activate and deactivate very rapidly in order to allow neurons to fire actions potentials at high frequency (Rudy and McBain, 2001, Trends in Neurosciences 24, 517-526). Slowing of activation is likely to delay the onset of action potential repolarisation; slowing of deactivation could lead to hyperpolarising currents that reduce the excitability of the neuron and delay the time before the neuron can fire a further action potential. Together these slowing effects on channel activation and deactivation are likely to lead to a reduction rather than a facilitation of the neurons ability to fire at high frequencies. Thus compounds that have this slowing effect on the Kv3.1 and/or Kv3.2 channels may slow neuronal firing.
The neurons are induced to fire at high frequencies by trains of high frequency depolarising current pulses at 100, 200, and 300 Hz. The ability of the neuron to fire an action potential on each pulse is determined. […] In the absence of drug (closed circles, n=9), the neurons maintained a spike probability of 1 up to 300 Hz.

| SMILES | Locomotor activity (beam crosses) ([1]; AMPH 2 mg/kg i.p. + Example 4 3 mg/kg i.p. 30 min before) | Locomotor activity (beam crosses) ([1]; AMPH 2 mg/kg i.p. + Example 4 10 mg/kg i.p. 30 min before, p<0.05 vs amphetamine alone) | Locomotor activity (beam crosses) ([1]; AMPH 2 mg/kg i.p. + Example 4 30 mg/kg i.p. 30 min before, p<0.001 vs amphetamine alone) | concentration at 90 min ([2]; Example 4 3 mg/kg i.p.) [ng/mL] | concentration at 90 min ([2]; Example 4 10 mg/kg i.p.) [ng/mL] | concentration at 90 min ([2]; Example 4 30 mg/kg i.p.) [ng/mL] | Tauact mean ([3]; hKv3.2, -15 mV voltage step, compound 0.2 μM (concentration giving ~0.3 nA current at end of pulse)) [ms] | Tauact ([3]; hKv3.2, each tested at a concentration that increased the Kv3.2 current to a similar level (~0.3 nA)) [ms] | ability of the neurons to fire on each pulse (spike probability) [4] |
| --- | --- | --- | --- | --- | --- | --- | --- | --- | --- |
| Cc1ccc(Oc2ncc(N3C(=O)NC(C)(C)C3=O)cn2)c2c1OCC21CC1 [Example 4, 5,5-dimethyl-3-[2-(7-methylspiro[2H-benzofuran-3,1′-cyclopropane]-4-yl)oxypyrimidin-5-yl]imidazolidine-2,4-dione] | 10263 ± 2443 | 9015 ± 1413 | 4555 ± 922 | 98 | 244 | 2140 | – | – | – |
| CC[C@H]1NC(=O)N(c2ccc(Oc3cccc4c3C3(CC3)CO4)nc2)C1=O [RE9, reference compound] | – | – | – | – | – | – | 50.1 | 50.1 ± 7.5 | reduces the ability of the neurons to fire; also recorded: unable to follow trains at the highest frequency |
